Measurements: PMC10776578, “Epstein-Barr virus-driven B cell lymphoma mediated by a direct LMP1-TRAF6 complex” (Nature Communications, 2024)
“Also recorded” adds a separate entry of the source. Like-named read-outs stand apart in the source and are kept apart here. No end group written: not given here.

Key:
[1] = system: His-TRAF6_310-522; assay: Peptide array, TRAF6 binding; design: species or system human; key to T6 interaction (peptide array): +: Interaction with TRAF6 or TRAF2 isindicated according to the results shown in Figure 1c.; -: Interaction with TRAF6 or TRAF2 isindicated according to the results shown in Figure 1c; conditions: for T6 interaction (peptide array): immobilized peptide, 10 µg per mL His-TRAF6, 4 h RT, two independent experiments; for TRAF6 binding to immobilized peptide (in words): peptide array
Method: (§1) Arrays were synthesized on a Multipep Synthesizer (Intavis Bioanalytical Instruments) on derivatized cellulose (amino-Peg500 UC540, acid-hardened, loading 400 nmol per cm^2, Intavis). After peptides were spot-assembled and deprotected, membranes were washed extensively with dichloromethane, N-methylpyrrolidone, and ethanol and stored at −20 °C until use. Prior to use, filters were rinsed for 10 sec in ethanol and washed three times for ten min each at 50 rpm in PBST (PBS, 0.1% Tween-20) under gentle rocking. Filters were blocked by incubation in PBST supplemented with 5% (w/v) nonfat dry milk powder for 2 h at RT and three washing steps in PBST for 20 min. Subsequently, nonspecific antibody binding sites were blocked by incubation of the filters at 4 °C overnight with either TRAF6 (goat α-TRAF6 C-20 #sc-6223, Santa Cruz Biotech.) or TRAF2 primary antibody (rabbit α-TRAF2 C-20, #sc-876, Santa Cruz Biotech.), diluted at 1:1000 in PBS supplemented with 5% (w/v) nonfat dry milk powder. Following three washing steps with PBS, the filters were incubated with horseradish peroxidase-conjugated α-goat IgG (Dianova, #305-035-003) or α-rabbit IgG (Cell signalling Technology, #7074S) secondary antibody, diluted 1:5000 in PBS supplemented with 5% (w/v) nonfat dry milk powder. Filters were developed with ECL and no nonspecific antibody binding was detected. To detect TRAF6 or TRAF2 binding to the immobilized peptides, filters were washed with PBST and subsequently incubated with 10 µg per mL recombinant purified His-TRAF6 or His-TRAF2 protein in PBST supplemented with 5% (w/v) nonfat dry milk powder for 4 h at RT. After washing the filters in PBST, TRAF protein binding was analyzed by incubation of the filters with TRAF6 (C-20, #sc-6223, Santa Cruz Biotech., used at 1:1000) or TRAF2 (C-20, #sc-876, Santa Cruz Biotech., used at 1:1000) primary and the respective Horseradish peroxidase-coupled secondary antibodies (Dianova, #305-035-003, used at 1:500, or Cell Signalling Technology, #7074, used at 1:5000). ECL signals were captured on X-ray films (Agfa Healthcare).

[2] = system: His-TRAF2_311-501; assay: Peptide array, TRAF2 binding; design: key to T2 interaction (peptide array): +: Interaction with TRAF6 or TRAF2 isindicated according to the results shown in Figure 1c.; -: Interaction with TRAF6 or TRAF2 isindicated according to the results shown in Figure 1c; conditions: for T2 interaction (peptide array): immobilized peptide, 10 µg per mL His-TRAF2, 4 h RT, two independent experiments
Method: as §1

[3] = system: His-TRAF6_310-522 (TRAF6); assay: AlphaScreen PPI assay, TRAF6 binding to GST-LMP1/CD40/RANK proteins; design: species or system human; conditions: for Bmax (best-fit value): AlphaScreen signal
Method: AlphaScreen experiments were performed in 96- or 384-well plates (Perkin Elmer, OptiPlate). In both assay formats, His-TRAF and GST-LMP1, GST-CD40, or GST-RANK proteins were incubated together in 40 µL of PBS (protein concentrations were calculated to the final reaction volume of 60 µL) supplemented with 0.5% BSA (Sigma, #A7030) and 0.1% Tween-20 (AppliChem, #A4974), for 1 h at room temperature (RT). If not indicated otherwise, standard protein concentrations were 300 nM for His-TRAF proteins and 100 nM for GST-LMP1 proteins. Ni-NTA-acceptor (Perkin Elmer, #6760619 C) and GST-acceptor (Perkin Elmer, # 6765300) beads were added each to a final concentration of 1–4 µg per mL in a final reaction volume of 60 µL and incubated for 1 h at RT in the dark. AlphaScreen PPI signals were measured in a CLARIOstar reader (BMG Labtech GmbH).
All statistical analyses were performed with Prism v10.1.0 software (GraphPad Software Inc.). Two-way ANOVA was performed on experiments with two factors of variance (Figs. 1e and 3a). Ordinary one-way ANOVA with multiple comparisons was performed on experiments with one factor of variance (Figs. 2a–e, 3c, 6b, 7b, 8c and Supplementary Fig. 2a). For KD determination, the data from each experiment were cleaned for the hook effect (signal depletion by oversaturation of the beads) and analyzed using the equation one site-specific binding with hill slope (Figs. 1f–i, and Supplementary Fig. 1f). The IC50 was determined using the log(inhibitor) vs. response – variable slope (four parameters) equation (Fig. 8b and d). A paired t-test was used for matched samples (Fig. 8b) and an unpaired t-test was used for unpaired samples (Figs. 7c and 8e).

[4] = source data, One site -- Specific binding with Hill slope
[5] = source data, One site -- Specific binding with Hill slope, concentrations c H-T6 in nM, read-out: Kd (best-fit value)

Question: Which “T6 interaction (peptide array)” value [1] does the source give for “PHLPTLLLGSSGSGGDDDDPHGAVALAYYD [peptide 12, LMP1 357-386, A379xAxA]” here?
Answer: -

Question: What about the “TRAF6 binding to immobilized peptide (in words)” value [1] of the same molecule?
Answer: abolished the direct TRAF6 binding

Question: And the “T2 interaction (peptide array)” value [2]?
Answer: -

Question: How did the “T6 interaction (peptide array)” value [1] turn out when “GSNTAAPVQETLHGCQPVTQEDGKESRISV [peptide 4, CD40 244-273]” was run?
Answer: -

Question: And the “T2 interaction (peptide array)” value [2]?
Answer: +

Question: How did the “T6 interaction (peptide array)” value [1] turn out when “KAEAQAINFPDDLPGSNTAAPVQETLHGCQ [peptide 3, CD40 230-259, A231xAxA]” was run?
Answer: -

Question: What about the “T2 interaction (peptide array)” value [2] of the same molecule?
Answer: +

Question: With “PHLPTLLLGSSGSGGDDDDPHGPVQLSYYD [peptide 11, LMP1 357-386 (30mer)]” as the molecule, how does the “T6 interaction (peptide array)” value [1] read?
Answer: +

Question: What about the “TRAF6 binding to immobilized peptide (in words)” value [1] of the same molecule?
Answer: efficiently captured

Question: And the “T2 interaction (peptide array)” value [2]?
Answer: -

Question: “GSNTAAAVAEALHGCQPVTQEDGKESRISV [peptide 5, CD40 244-273, A250xAxA]” was tested. Which “T6 interaction (peptide array)” value [1] did it give?
Answer: -

Question: And the “T2 interaction (peptide array)” value [2]?
Answer: -

Question: Which results are given for “RANK E346Q (GGGPYAQGEDARMLSLVSKTEIEEDSFRQMPTQDEYMDRPSQ; also: GST fusion left off, end not given here)”?
Answer: h (Hill slope, best-fit value) [3, 4]: 1.998; Bmax (best-fit value) [3, 4]: 1302008

Question: How did the “T6 interaction (peptide array)” value [1] turn out when “KQEPQEINFPDDLPGSNTAAPVQETLHGCQ [peptide 1, CD40 amino acids 230-259]” was run?
Answer: +

Question: And the “T2 interaction (peptide array)” value [2]?
Answer: +

Question: For “RANK: recombinant GST-RANK314-355 (GGGPYAQGEDARMLSLVSKTEIEEDSFRQMPTEDEYMDRPSQ; also: GST fusion left off, end not given here)”, which “h (Hill slope, best-fit value)” value [3, 4] is on record?
Answer: 2.024

Question: What about the “Bmax (best-fit value)” value [3, 4] of the same molecule?
Answer: 1370733

Question: What about the Kd [3, 5] of the same molecule?
Answer: 7.74 nM

Question: Which results are given for “DDSLPHPQQATDDSGHESDSNSNEGRHHLL [peptide 6, LMP1 198-227]”?
Answer: T6 interaction (peptide array) [1]: -; TRAF6 binding to immobilized peptide (in words) [1]: did not bind; T2 interaction (peptide array) [2]: +; TRAF2 binding to immobilized peptide (in words) ([2]; peptide array): bound

Question: Which results are given for “2: CD40 230-259, A250xAxA (KQEPQEINFPDDLPGSNTAAAVAEALHGCQ; UniProt P25942 230-259, looked up, variant P250A Q252A T254A) [compound 2]”?
Answer: T6 interaction (peptide array) [1]: +; T2 interaction (peptide array) [2]: -

Question: What does the source list for “… GDDDDPHGPVQLSAAD [peptide 9, LMP1 371-386, A384A385]”?
Answer: T6 interaction (peptide array) [1]: -; TRAF6 binding to immobilized peptide (in words) [1]: abolished the direct TRAF6 binding; T2 interaction (peptide array) [2]: -

Question: With “… GDDDDPHGPVQLSYYD [peptide 8, LMP1 371-386 (16mer)]” as the molecule, how does the “T6 interaction (peptide array)” value [1] read?
Answer: +

Question: What about the “TRAF6 binding to immobilized peptide (in words)” value [1] of the same molecule?
Answer: efficiently captured

Question: And the “T2 interaction (peptide array)” value [2]?
Answer: -

B1: LMP1 Q381E (protein)
chain: LIWMYYHGQRHSDEHHHDDSLPHPQQATDDSGHESDSNSNEGRHHLLVSGAGDGPPLCSQNLGAPGGGPDNGPQDPDNTDDNGPQDPDNTDDNGPHDPLPQDPDNTDDNGPQDPDNTDDNGPHDPLPHSPSDSAGNDGGPPQLTEEVENKGGDQGPPLMTDGGGGHSHDSGHGGGDPHLPTLLLGSSGSGGDDDDPHGPVELSYYD
modifications: left off: GST, end not stated, kept
Question: For B1, which “fold enhanced affinity for TRAF6” value ([3]; compared with LMP1 wild-type) is on record?
Answer: 5.0 -fold

Question: What about the “h (Hill slope, best-fit value)” value [3, 4] of the same molecule?
Answer: 1.772

Question: And the “Bmax (best-fit value)” value [3, 4]?
Answer: 1507585

B2: LMP1 Y384F (protein)
chain: LIWMYYHGQRHSDEHHHDDSLPHPQQATDDSGHESDSNSNEGRHHLLVSGAGDGPPLCSQNLGAPGGGPDNGPQDPDNTDDNGPQDPDNTDDNGPHDPLPQDPDNTDDNGPQDPDNTDDNGPHDPLPHSPSDSAGNDGGPPQLTEEVENKGGDQGPPLMTDGGGGHSHDSGHGGGDPHLPTLLLGSSGSGGDDDDPHGPVQLSFYD
modifications: left off: GST, end not stated, kept
Question: Which results are given for B2?
Answer: TRAF6 binding/affinity (in words) ([3]; AlphaScreen PPI): improved the affinity of LMP1 for TRAF6; also recorded: higher affinity of Y384F to TRAF6 as compared to wild-type LMP1; Kd ([3]; AlphaScreen PPI, His-TRAF6_310-522 titrated with GST-receptor protein, PBS 0.5% BSA 0.1% Tween-20, 1 h RT, one site-specific binding with hill slope, mean ± SD, n = 3 (CD40), 4 (LMP1), 6 (RANK), read-out: KD of TRAF6 interaction): 21.7 ± 6.6 nM; h (Hill slope, best-fit value) [3, 4]: 1.321; Bmax (best-fit value) [3, 4]: 1186145; Kd [3, 5]: 21.7 nM

B3: LMP1 Y384D (protein)
chain: LIWMYYHGQRHSDEHHHDDSLPHPQQATDDSGHESDSNSNEGRHHLLVSGAGDGPPLCSQNLGAPGGGPDNGPQDPDNTDDNGPQDPDNTDDNGPHDPLPQDPDNTDDNGPQDPDNTDDNGPHDPLPHSPSDSAGNDGGPPQLTEEVENKGGDQGPPLMTDGGGGHSHDSGHGGGDPHLPTLLLGSSGSGGDDDDPHGPVQLSDYD
modifications: left off: GST, end not stated, kept
Question: What does the source list for B3?
Answer: TRAF6 binding/affinity (in words) ([3]; AlphaScreen PPI): TRAF6 binding was not abolished; reduction of affinity to TRAF6 (factor) ([3]; compared with the respective wild-type receptor): 1.8; Kd ([3]; one site, specific binding with Hill slope, c H-T6 in nM, hook effect data excluded, 95% CI A204xAxA 52,94 to 93,02, Y384D 72,59 to 190,2, read-out: Kd): 131 nM; h (Hill slope) ([3]; one site, specific binding with Hill slope, hook effect data excluded, Std. Error A204xAxA 0.2126, Y384D 0.1712): 1.019; Bmax ([3]; one site, specific binding with Hill slope, hook effect data excluded, Std. Error A204xAxA 67298, Y384D 78225): 1231417

B4: CD40: recombinant GST-CD40_216-277 (protein)
chain: KKVAKKPTNKAPHPKQEPQEINFPDDLPGSNTAAPVQETLHGCQPVTQEDGKESRISVQERQ
modifications: left off: GST, end not stated, kept
Question: What does the source list for B4?
Answer: h (Hill slope, best-fit value) [3, 4]: 2.083; Bmax (best-fit value) [3, 4]: 1455821

B5: CD40 E235Q (protein)
chain: KKVAKKPTNKAPHPKQEPQQINFPDDLPGSNTAAPVQETLHGCQPVTQEDGKESRISVQERQ
modifications: left off: GST, end not stated, kept
Question: For B5, which “h (Hill slope, best-fit value)” value [3, 4] is on record?
Answer: 1.924

Question: What about the “Bmax (best-fit value)” value [3, 4] of the same molecule?
Answer: 1053663
